Among the test systems are SW-620 colon; EKVX NSCLC; HCC-2998 colon; A498 renal; MDA-MB-435; SF-539 CNS; KM12 colon; BT-549 breast; DU-145 prostate; HT29 colon.
What all share (test): NCI tumour cell line growth inhibition, 48 h

This is an account of results in PubChem BioAssay (NCI).

Each structure is given as a SMILES string.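 Tested at 5 concentrations; 48 h exposure; 96-well plates; endpoints linearly interpolated, else capped at highest concentration. Abbreviation: GI50, concentration required for 50% inhibition of growth. Definition used: TGI = concentration required for complete inhibition of growth.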

As for `O=CNc1c(Cl)cc2c(c1Cl)Cc1cc([N+](=O)[O-])ccc1-2`, the GI50 in the test on SW-620 colon was 3.33 µM; in the test with EKVX NSCLC, 0.359 µM; with HCC-2998 colon it was 5.84 µM; in the test with A498 renal, 4.07 µM; in the test on MDA-MB-435, 1.46 µM; in the test on SF-539 CNS, 6.15 µM. In addition, the GI50 with KM12 colon is 2.51 µM; in the test with BT-549 breast, 16.3 µM; in the test with DU-145 prostate, 7.72 µM; with HT29 colon it was 4.41 µM. Moreover, the TGI is above 100 µM in the test on SW-620 colon; 13.6 µM in the test on EKVX NSCLC; 39.9 µM in the test on HCC-2998 colon; 48.4 µM with A498 renal; 3.63 µM with MDA-MB-435; above 100 µM in the test on SF-539 CNS. The TGI in the test on KM12 colon is 11.9 µM; with BT-549 breast, above 86.9 µM; with DU-145 prostate, above 49.9 µM; with HT29 colon, above 54.8 µM.
Turning to `CCCC[C@H](NC(=O)[C@H]1CCCN1C)C(=O)N(C)[C@H](C[C@@H](OC(C)=O)c1nc(C(=O)N[C@@H](Cc2ccccc2)C[C@H](C)C(=O)OCC)cs1)C(C)C`, the GI50 is 0.0106 µM in the test with SW-620 colon; 0.0591 µM with EKVX NSCLC; 0.0113 µM in the test with HCC-2998 colon; 0.00714 µM in the test on A498 renal; below 0.00333 µM in the test with MDA-MB-435; 0.022 µM in the test on SF-539 CNS. Besides, the GI50 with KM12 colon is 0.0114 µM; in the test on BT-549 breast it was 0.0168 µM; with DU-145 prostate it was 0.0137 µM; with HT29 colon, 0.00974 µM. For the same compound, the TGI with SW-620 colon is above 33.3 µM; with EKVX NSCLC, above 33.3 µM; in the test with HCC-2998 colon, 10.9 µM; in the test on A498 renal, 0.0841 µM; in the test with MDA-MB-435, 0.00655 µM; in the test with SF-539 CNS it was 0.241 µM. The TGI with KM12 colon was 18 µM; in the test on BT-549 breast it was 0.447 µM; in the test on DU-145 prostate, above 33.3 µM; in the test on HT29 colon it was 0.0414 µM.
With `Nc1ccn(Cc2ccc(C34CC5CC(CC(C5)C3)C4)c(O)c2)c(=O)n1`, the GI50 in the test on SW-620 colon is above 100 µM; with EKVX NSCLC, 93 µM; with HCC-2998 colon it was 32.1 µM; in the test with A498 renal, 59.4 µM; in the test on MDA-MB-435 it was above 100 µM; in the test with SF-539 CNS, 42 µM. For the same compound, the GI50 in the test with KM12 colon, with BT-549 breast, in the test on DU-145 prostate and in the test on HT29 colon was above 100 µM each time. Besides, the TGI with SW-620 colon, with EKVX NSCLC, in the test on HCC-2998 colon, with A498 renal, in the test on MDA-MB-435 and with SF-539 CNS was above 100 µM in each case. For the same compound, the TGI in the test on KM12 colon, with BT-549 breast, in the test with DU-145 prostate and in the test on HT29 colon was above 100 µM throughout.
Turning to `CCN(CC)c1ccc(C(=C2C=CC(=[N+](CC)Cc3cccc(S(=O)(=O)O)c3)C=C2)c2ccc(N(CC)Cc3cccc(S(=O)(=O)O)c3)cc2)cc1`, the GI50 with SW-620 colon is 4.45 µM; in the test with EKVX NSCLC, 6.82 µM; with HCC-2998 colon, 5.78 µM; in the test with A498 renal, 5.35 µM; with MDA-MB-435, 4.07 µM; with SF-539 CNS, 3.57 µM. Further, the GI50 was 4.36 µM with KM12 colon, 5.45 µM with BT-549 breast, 4.74 µM with DU-145 prostate and 3.4 µM in the test with HT29 colon. Further, the TGI was above 100 µM in the test on SW-620 colon; above 100 µM in the test with EKVX NSCLC; above 100 µM in the test with HCC-2998 colon; 32.4 µM in the test with A498 renal; above 100 µM in the test on MDA-MB-435; 23.3 µM with SF-539 CNS. Further, the TGI with KM12 colon was 28.9 µM; in the test with BT-549 breast, above 91.7 µM; with DU-145 prostate, above 100 µM; with HT29 colon, above 88.9 µM.
With `CCN(CC)CCn1ccc(=O)c2cc3c(=O)ccn(CCN(CC)CC)c3c(C)c21`, the TGI worked out at 5.26 µM in the test on SW-620 colon; 18.8 µM with EKVX NSCLC; 2.93 µM in the test on HCC-2998 colon; 29.2 µM with A498 renal; 16.7 µM with MDA-MB-435; 24.2 µM with SF-539 CNS. Also, the TGI in the test with KM12 colon came out at 2.61 µM; in the test with BT-549 breast it was 29.2 µM; in the test with DU-145 prostate, 20.7 µM; in the test on HT29 colon, 12.7 µM.
For the compound `CC1SC(c2c(Cl)cccc2Cl)N(NC(=O)c2[nH]c3ccc(F)cc3c2-c2ccccc2)C1=O` (stereo not given), the GI50 in the test with SW-620 colon is 3.19 µM; with EKVX NSCLC, 2.33 µM; with HCC-2998 colon it was 25 µM; in the test on A498 renal, 2.33 µM; with MDA-MB-435, 5.01 µM; in the test with SF-539 CNS, 3.7 µM. Also, the GI50 in the test on KM12 colon is 3.53 µM; in the test on BT-549 breast, 5.04 µM; with DU-145 prostate, 1.92 µM; in the test with HT29 colon it was 2.96 µM. For the same compound, the TGI is 11.2 µM with SW-620 colon; 10.8 µM in the test with EKVX NSCLC; above 100 µM in the test on HCC-2998 colon; 9.46 µM with A498 renal; above 100 µM in the test with MDA-MB-435; 11.9 µM with SF-539 CNS. The TGI worked out at 20.9 µM in the test with KM12 colon, 28.5 µM in the test on BT-549 breast, 4.36 µM in the test with DU-145 prostate and 10.8 µM with HT29 colon.
`COc1c(CCC[P+](c2ccccc2)(c2ccccc2)c2ccccc2)cc2c(c1OC)OCO2`: the GI50 in the test with SW-620 colon was 1.93 µM; with EKVX NSCLC, 3.88 µM; in the test with HCC-2998 colon, 2.22 µM; with A498 renal it was 0.0261 µM; in the test on MDA-MB-435 it was 0.462 µM; in the test on SF-539 CNS, 2.1 µM. The GI50 is 0.643 µM with KM12 colon, 1.24 µM in the test with BT-549 breast, 3.56 µM in the test with DU-145 prostate and 1.08 µM in the test with HT29 colon. In addition, the TGI is 11.1 µM in the test on SW-620 colon; 51.1 µM with EKVX NSCLC; 14.6 µM with HCC-2998 colon; 3.3 µM in the test on A498 renal; 5.03 µM in the test on MDA-MB-435; 13.7 µM in the test with SF-539 CNS. For the same compound, the TGI with KM12 colon was 7.48 µM; in the test on BT-549 breast, 15 µM; with DU-145 prostate, above 100 µM; with HT29 colon it was 18.8 µM.
